Results from patent publication US9296759B2, “Amino-oxazine and amino-dihydrothiazine compounds as beta-secretase modulators and methods of use” (AMGEN INC., priority 2011, dated 2016).
pIC50: −log10 of the molar value.

Assays:
Cathepsin D = Cathepsin D (Homo sapiens (Human), UniProt P07339); test: In vitro enzymatic Cat D (Cathepsin D) FRET assay; format: biochemical; settings: average IC50
Procedure: In Vitro Enzymatic Cat D (Cathepsin D) FRET (Fluorescence Resonance Energy Transfer) Assay
Recombinant CathepsinD was expressed in CHO cells. The assay buffer for CathepsinD is 0.05 M citrate pH 3.5, 10% DMSO final, 5 mM CHAPS. […] The assays are effectively started by the addition of different FRET substrates (20 nM for CathepsinD) and the combination is incubated for one hour. The FRET assay is terminated with by addition of Tris buffer, which raises the pH to neutrality, and the fluorescence is determined. The FRET substrate is a peptide with commercially available fluorophore and quencher, on opposite sides of the BACE cleavage site. […] Proteolytic cleavage of the FRET substrate releases quenching of fluorescence (CathepsinD excitation 500 nm and emission 580 nm).

[1] = target: BACE 1 (beta secretase enzyme) (Homo sapiens (Human), UniProt P56817); test: In vitro enzymatic BACE FRET assay; format: biochemical; settings: average IC50
Procedure: In Vitro Enzymatic BACE FRET (Fluorescence Resonance Energy Transfer) Assay
The assay buffer used in this screen is 0.05 M acetate, pH 4.2, 10% DMSO final, 100 uM genapol (which is a nonionic detergent, below its Critical Micelle Concentration). […] This assay is effectively started by the addition of FRET substrate (50 nM) and the combination is incubated for one hour. The FRET assay is terminated with by addition of Tris buffer, which raises the pH to neutrality, and the fluorescence is determined. The FRET substrate is a peptide with commercially available fluorophore and quencher, on opposite sides of the BACE cleavage site. Proteolytic cleavage of the FRET substrate releases quenching of fluorescence (excitation […] and […]).

[2] = test system: Aβ40 in conditioned medium of cells stably expressing Amyloid Precursor Protein (APP); test: In vitro BACE cell-based assay (HEK cell assay, Aβ40 sandwich ELISA); settings: average IC50, Aβ40, 24 h incubation
Procedure: In Vitro BACE Cell-Based Assay
The cell-based assay measures inhibition or reduction of Aβ40 in conditioned medium of test compound treated cells expressing amyloid precursor protein.
Cells stably expressing Amyloid Precursor Protein (APP) were plated at a density of 40K cells/well in 96 well plates (Costar). The cells were cultivated for 24 hours at 37° C. and 5% CO2 in DMEM supplemented with 10% FBS. The test compounds were then added to cells in 10-point dose response concentrations with the starting concentration being either 100 μM or 10 μM. The compounds were diluted from stock solutions in DMSO and the final DMSO concentration of the test compounds on cells was 0.1%. After 24 h of incubation with the test compounds the supernatant conditioned media was collected and the Aβ 40 levels were determined using a sandwich ELISA. The IC50 of the compound was calculated from the percent of control or percent inhibition of Aβ 40 as a function of the concentration of the test compound.
The sandwich ELISA to detect Aβ 40 was performed in 96 well microtiter plates, which were pre-treated with goat anti-rabbit IgG (Pierce). The capture and detecting antibody pair that were used to detect Aβ 40 from cell supernatants were affinity purified pAb40 (Biosource) and biotinylated 6E10 (Signet Labs Inc.), respectively. The optimal concentration for the pAb40 antibody was 3 μg/ml in Superblock/TBS (Pierce) that was supplemented with 0.05% Tween 20 (Sigma).
Cellular supernatants were incubated with the capture antibody for 3 h at 4° C., followed by 3 wash steps in TBS-tween (0.05%). The detecting antibody incubation was for 2 h at 4° C., again followed by the wash steps as described previously. The final readout of the ELISA is Time-Resolved Fluorescence (counts per minute) using Delfia reagents Streptavidin-Europium and Enhancement solutions (Perkin Elmer) and the Victor 2 multilabel counter (Perkin Elmer).

Chain of Cathepsin D (P07339 65-412, species assumed): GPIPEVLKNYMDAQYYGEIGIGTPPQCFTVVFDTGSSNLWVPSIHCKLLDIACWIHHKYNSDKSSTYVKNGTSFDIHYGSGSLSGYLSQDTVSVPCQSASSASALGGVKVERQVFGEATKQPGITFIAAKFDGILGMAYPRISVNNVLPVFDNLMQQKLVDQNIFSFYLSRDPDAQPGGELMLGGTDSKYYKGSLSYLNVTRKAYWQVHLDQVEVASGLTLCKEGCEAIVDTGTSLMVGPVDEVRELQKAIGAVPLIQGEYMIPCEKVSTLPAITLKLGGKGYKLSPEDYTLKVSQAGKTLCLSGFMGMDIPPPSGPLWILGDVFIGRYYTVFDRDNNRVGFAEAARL
Chain of BACE 1 (beta secretase enzyme) (P56817 46-501): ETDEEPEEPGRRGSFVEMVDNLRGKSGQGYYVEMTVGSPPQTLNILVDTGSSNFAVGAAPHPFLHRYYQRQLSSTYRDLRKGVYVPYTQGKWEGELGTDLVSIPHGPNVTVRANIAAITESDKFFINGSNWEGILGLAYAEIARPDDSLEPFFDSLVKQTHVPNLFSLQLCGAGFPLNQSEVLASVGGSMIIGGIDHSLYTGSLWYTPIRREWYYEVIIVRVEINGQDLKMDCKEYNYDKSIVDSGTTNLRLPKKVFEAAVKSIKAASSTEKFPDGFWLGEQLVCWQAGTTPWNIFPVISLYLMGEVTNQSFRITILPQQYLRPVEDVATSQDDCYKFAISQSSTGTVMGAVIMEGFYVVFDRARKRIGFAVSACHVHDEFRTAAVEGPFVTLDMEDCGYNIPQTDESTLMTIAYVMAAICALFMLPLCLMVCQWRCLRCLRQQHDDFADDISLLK

Q: How did the pIC50 (Cathepsin D) turn out when CCOc1cccnc1Nc1ccc2c(c1)[C@@]1(CCOC(N)=N1)c1cc(OC)cc(F)c1O2 [Example 31, (4S)-N~2~′-(3-ethoxy-2-pyridinyl)-5′-fluoro-7′-methoxy-5,6-dihydrospiro[1,3-oxazine-4,9′-xanthene]-2,2′-diamine] was run?
A: The pIC50 was 3.40.

Q: What about the pIC50 [1] of the same compound?
A: Its pIC50 is 7.16.

Q: And the pIC50 [2]?
A: The pIC50 was 7.19.

Q: With COc1cc(F)c2c(c1)[C@]1(CCSC(N)=N1)c1cc(NC(=O)c3ccc(Cl)cn3)ccc1O2 [Example 32, N-((4S)-2-amino-5′-fluoro-7′-methoxy-5,6-dihydrospiro[1,3-thiazine-4,9′-xanthen]-2′-yl)-5-chloro-2-pyridinecarboxamide] as the compound, how does the pIC50 (Cathepsin D) read?
A: The pIC50 was 3.46.

Q: What about the pIC50 ([2]; Homo sapiens, HEK293) of the same compound?
A: Its pIC50 is 7.50.

Q: How did the pIC50 (Cathepsin D) turn out when NC1=N[C@@]2(CCO1)c1cc(NC(=O)c3ccc(Cl)cn3)ccc1Oc1c2cc(Cl)nc1F [Example 38, N-((5S)-2′-amino-3-chloro-1-fluoro-5′,6′-dihydrospiro[chromeno[2,3-c]pyridine-5,4′-[1,3]oxazin]-7-yl)-5-chloro-2-pyridinecarboxamide] was run?
A: Its pIC50 is under 3.40.

Q: What about the pIC50 ([2]; Homo sapiens, HEK293) of the same compound?
A: The pIC50 was 7.51.

Q: What does the source list for Cc1cccnc1Nc1ccc2c(c1)[C@@]1(CCOC(N)=N1)c1cc(Cl)nc(F)c1O2 [Example 41, (5S)-3-chloro-1-fluoro-N~7~-(3-methyl-2-pyridinyl)-5′,6′-dihydrospiro[chromeno[2,3-c]pyridine-5,4′-[1,3]oxazine]-2′,7-diamine]?
A: pIC50 (Cathepsin D): 3.41; pIC50 ([2]; Homo sapiens, HEK293): 6.55

Q: What does the source list for COc1cc(F)c2c(c1)[C@]1(CCOC(N)=N1)c1cc(NC(=O)c3ccc(Cl)cn3)ccc1O2 [Example 42, N-((4S)-2-amino-5′-fluoro-7′-methoxy-5,6-dihydrospiro[1,3-oxazine-4,9′-xanthen]-2′-yl)-5-chloro-2-pyridinecarboxamide]?
A: pIC50 (Cathepsin D): < 3.40; pIC50 ([2]; Homo sapiens, HEK293): 7.69

Q: How did the pIC50 (Cathepsin D) turn out when COc1cnc(C(=O)Nc2ccc3c(c2)[C@@]2(CCOC(N)=N2)c2cc(Cl)nc(F)c2O3)cn1 [Example 47, N-((5S)-2′-amino-3-chloro-1-fluoro-5′,6′-dihydrospiro[chromeno[2,3-c]pyridine-5,4′-[1,3]oxazin]-7-yl)-5-methoxy-2-pyrazinecarboxamide] was run?
A: The pIC50 was 3.48.

Q: With CC#CCOc1cnc(C(=O)Nc2ccc3c(c2)[C@@]2(CCOC(N)=N2)c2cc(Cl)nc(F)c2O3)cn1 [Example 48, N-((5S)-2′-amino-3-chloro-1-fluoro-5′,6′-dihydrospiro[chromeno[2,3-c]pyridine-5,4′-[1,3]oxazin]-7-yl)-5-(2-butyn-1-yloxy)-2-pyrazinecarboxamide] as the compound, how does the pIC50 (Cathepsin D) read?
A: The pIC50 was 3.82.

Q: What about the pIC50 ([2]; Homo sapiens, HEK293) of the same compound?
A: The pIC50 was 9.52.

Q: COc1cnc(C(=O)Nc2ccc3c(c2)[C@@]2(CCOC(N)=N2)c2cc(C4CCOCC4)cc(F)c2O3)cn1 [Example 61, N-((4S)-2-amino-5′-fluoro-7′-(tetrahydro-2H-pyran-4-yl)-5,6-dihydrospiro[1,3-oxazine-4,9′-xanthen]-2′-yl)-5-methoxy-2-pyrazinecarboxamide] was tested. Which pIC50 (Cathepsin D) did it give?
A: Its pIC50 is 3.42.

Q: What about the pIC50 ([2]; Homo sapiens, HEK293) of the same compound?
A: The pIC50 was 8.11.

Q: N#Cc1ccc(C(=O)Nc2ccc3c(c2)[C@@]2(CCOC(N)=N2)c2cc(C4=CCOCC4)nc(F)c2O3)nc1 [Example 64, N-((5S)-2′-amino-3-(3,6-dihydro-2H-pyran-4-yl)-1-fluoro-5′,6′-dihydrospiro[chromeno[2,3-c]pyridine-5,4′-[1,3]oxazin]-7-yl)-5-cyano-2-pyridinecarboxamide] was tested. Which pIC50 [1] did it give?
A: Its pIC50 is 9.13.

Q: What about the pIC50 ([2]; Homo sapiens, HEK293) of the same compound?
A: Its pIC50 is 10.41.

Q: With COc1cc(F)c2c(c1)[C@]1(CCOC(N)=N1)c1cc(NC(=O)c3cnc(OC)cn3)ccc1O2 [Example 75, N-((4S)-2-amino-5′-fluoro-7′-methoxy-5,6-dihydrospiro[1,3-oxazine-4,9′-xanthen]-2′-yl)-5-methoxy-2-pyrazinecarboxamide] as the compound, how does the pIC50 (Cathepsin D) read?
A: The pIC50 was 3.40.

Q: What about the pIC50 ([2]; Homo sapiens, HEK293) of the same compound?
A: The pIC50 was 7.57.

Q: With COc1ccc(C(=O)Nc2ccc3c(c2)[C@@]2(CCOC(N)=N2)c2cc(OC)cc(F)c2O3)c(F)c1 [Example 77, N-((4S)-2-amino-5′-fluoro-7′-methoxy-5,6-dihydrospiro[1,3-oxazine-4,9′-xanthen]-2′-yl)-2-fluoro-4-methoxybenzamide] as the compound, how does the pIC50 (Cathepsin D) read?
A: Its pIC50 is 3.48.

Q: What about the pIC50 ([2]; Homo sapiens, HEK293) of the same compound?
A: Its pIC50 is 6.74.

Q: Which results are given for Cc1nc(C(=O)Nc2ccc3c(c2)[C@@]2(CCOC(N)=N2)c2cc(C4=CCCOC4)nc(F)c2O3)cs1 [Example 85, N-((5S)-2′-amino-3-(5,6-dihydro-2H-pyran-3-yl)-1-fluoro-5′,6′-dihydrospiro[chromeno[2,3-c]pyridine-5,4′-[1,3]oxazin]-7-yl)-2-methyl-1,3-thiazole-4-carboxamide]?
A: pIC50 [1]: 9.05; pIC50 ([2]; Homo sapiens, HEK293): 10.10

Q: Which results are given for NC1=N[C@@]2(CCO1)c1cc(NC(=O)c3ccc(Cl)cn3)ccc1Oc1ncc(-c3ccnc(F)c3)cc12 [Example 90, N-((5S)-2′-amino-3-(2-fluoro-4-pyridinyl)-5′,6′-dihydrospiro[chromeno[2,3-b]pyridine-5,4′-[1,3]oxazin]-7-yl)-5-chloro-2-pyridinecarboxamide]?
A: pIC50 (Cathepsin D): 3.40; pIC50 ([2]; Homo sapiens, HEK293): 9.15

Q: NC1=N[C@@]2(CCO1)c1cc(NC(=O)c3ccc(Cl)cn3)ccc1Oc1c2cc(-c2ccnc(F)c2)nc1F [Example 91, N-((5S)-2′-amino-1-fluoro-3-(2-fluoro-4-pyridinyl)-5′,6′-dihydrospiro[chromeno[2,3-c]pyridine-5,4′-[1,3]oxazin]-7-yl)-5-chloro-2-pyridinecarboxamide] was tested. Which pIC50 (Cathepsin D) did it give?
A: The pIC50 was 3.40.

Q: What about the pIC50 ([2]; Homo sapiens, HEK293) of the same compound?
A: The pIC50 was 9.40.

Q: With COc1nc(C2=CCOCC2)cc2c1Oc1ccc(NC(=O)c3ccc(F)cn3)cc1[C@@]21CCOC(N)=N1 [Example 96, N-((5S)-2′-amino-3-(3,6-dihydro-2H-pyran-4-yl)-1-methoxy-5′,6′-dihydrospiro[chromeno[2,3-c]pyridine-5,4′-[1,3]oxazin]-7-yl)-5-fluoro-2-pyridinecarboxamide] as the compound, how does the pIC50 ([2]; Homo sapiens, HEK293) read?
A: Its pIC50 is 8.06.

Q: COc1ccc(C(=O)Nc2ccc3c(c2)[C@@]2(CCOC(N)=N2)c2cc(-c4ccnc(F)c4)nc(F)c2O3)nc1 [Example 98, N-((5S)-2′-amino-1-fluoro-3-(2-fluoro-4-pyridinyl)-5′,6′-dihydrospiro[chromeno[2,3-c]pyridine-5,4′-[1,3]oxazin]-7-yl)-5-methoxy-2-pyridinecarboxamide] was tested. Which pIC50 (Cathepsin D) did it give?
A: Its pIC50 is 3.40.

Q: Cc1nc(C(=O)Nc2ccc3c(c2)[C@@]2(CCOC(N)=N2)c2cc(-c4ccnc(F)c4)nc(F)c2O3)cs1 [Example 99, N-((5S)-2′-amino-1-fluoro-3-(2-fluoro-4-pyridinyl)-5′,6′-dihydrospiro[chromeno[2,3-c]pyridine-5,4′-[1,3]oxazin]-7-yl)-2-methyl-1,3-thiazole-4-carboxamide] was tested. Which pIC50 [1] did it give?
A: Its pIC50 is 9.10.

Q: And the pIC50 ([2]; Homo sapiens, HEK293)?
A: The pIC50 was 9.40.

Q: NC1=N[C@@]2(CCO1)c1cc(NC(=O)c3ccc(F)cn3)ccc1Oc1c(F)cc(-c3ccnc(F)c3)cc12 [Example 102, N-((4S)-2-amino-5′-fluoro-7′-(2-fluoro-4-pyridinyl)-5,6-dihydrospiro[1,3-oxazine-4,9′-xanthen]-2′-yl)-5-fluoro-2-pyridinecarboxamide] was tested. Which pIC50 ([2]; Homo sapiens, HEK293) did it give?
A: Its pIC50 is 8.24.

Q: With N#Cc1ccc(C(=O)Nc2ccc3c(c2)[C@@]2(CCOC(N)=N2)c2cc(-c4ccnc(F)c4)cc(F)c2O3)nc1 [Example 108, N-((4S)-2-amino-5′-fluoro-7′-(2-fluoro-4-pyridinyl)-5,6-dihydrospiro[1,3-oxazine-4,9′-xanthen]-2′-yl)-5-cyano-2-pyridinecarboxamide] as the compound, how does the pIC50 (Cathepsin D) read?
A: The pIC50 was 3.40.

Q: What about the pIC50 ([2]; Homo sapiens, HEK293) of the same compound?
A: The pIC50 was 9.30.

Q: With COc1cnc(C(=O)Nc2ccc3c(c2)[C@@]2(CCSC(N)=N2)c2cc(-c4cncc(F)c4)nc(F)c2O3)cn1 [Example 112, N-((5S)-2′-amino-1-fluoro-3-(5-fluoro-3-pyridinyl)-5′,6′-dihydrospiro[chromeno[2,3-c]pyridine-5,4′-[1,3]thiazin]-7-yl)-5-methoxy-2-pyrazinecarboxamide] as the compound, how does the pIC50 [1] read?
A: The pIC50 was 8.55.

Q: What about the pIC50 ([2]; Homo sapiens, HEK293) of the same compound?
A: Its pIC50 is 8.92.
